Measurements from patent US20130101634A1, “COMPOSITIONS AND METHODS FOR REDUCING MICROBIAL OVERGROWTH IN THE SMALL INTESTINES” (DEERLAND ENZYMES, INC., priority 2011, published 2013).

Columns and labels:
E. coli = assay: Growth curve (O.D. 600 over time) in nutrient broth; type: cell-based; conditions: 1 mg/ml in nutrient broth, alone or with 1 mg/ml EDTA or citrate, 37° C., FIGS. 1, 3, 5
Description: (§1) Growth Curves Since bacteria grow exponentially, it is useful to plot the logarithm of the relative population size [y=ln(NIN0)] against time. Frozen permanents of each strain were streaked for single colonies using nutrient agar plates warmed prior to use. Single bacterial cells were restreaked on a nutrient agar plate at 37° C. for 24 h to 72 h depending on strain. Cells of several well-grown colonies on the plate were added to 50 ml of nutrient broth with shaking at 37° C. until the culture reached the desired optical density. Ingredients of interest were slowly added while stirring at 37° C. […] Samples were taken at various time points and the optical density of the culture was obtained at 600 nm. All experiments were replicated twice.

Bacteroides fragilis = assay: as above; type: cell-based; conditions: 1 mg/ml in nutrient broth, alone or with 1 mg/ml EDTA, 37° C., FIGS. 2, 4, 6
Description: as §1

Row | Substance | cell growth (O.D. 600 as a function of time) (E. coli) | cell growth (O.D. 600 as a function of time) (Bacteroides fragilis)
1 | lysozyme | cell growth is not totally eliminated and cell culture will recover | cell growth is not totally eliminated and cell culture will recover
2 | nisin | cell growth is not totally eliminated and cell culture will recover | cell growth is not totally eliminated and cell culture will recover
